Like-named read-outs stand apart in the source and are kept apart here.
Assays:
[1] = molecular target: T1, glutathione-S-transferase (GST) tagged LXRbeta LBD (ligand binding domain) (Homo sapiens, UniProt P55055); assay: LanthaScreen TR-FRET Liver X Receptor Coactivator Assay, co-activator recruitment to LXRbeta LBD; assay type: biochemical
T1 construct: purchased Invitrogen pv4658.pps
T1 sequence (P55055 222-460 limits assumed): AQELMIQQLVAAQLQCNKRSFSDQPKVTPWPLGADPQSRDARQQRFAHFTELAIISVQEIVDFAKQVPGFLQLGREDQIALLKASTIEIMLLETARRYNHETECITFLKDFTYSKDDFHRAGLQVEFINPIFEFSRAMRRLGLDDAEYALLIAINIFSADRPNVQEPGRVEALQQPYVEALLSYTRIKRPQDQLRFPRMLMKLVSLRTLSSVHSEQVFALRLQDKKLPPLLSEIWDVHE
Outline: (§1)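 TR-FRET coactivator recruitment; compound + LBD, then fluorescein-coactivator peptide/Tb-anti-GST Ab mix; RT incubation; IP and Emax vs T0901317.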

[2] = molecular target: T2, glutathione-S-transferase (GST) tagged LXRalpha LBD (ligand binding domain) (Homo sapiens, UniProt Q13133); assay: LanthaScreen TR-FRET Liver X Receptor Coactivator Assay, co-activator recruitment to LXRalpha LBD; assay type: biochemical
T2 construct: purchased Invitrogen pv4655
T2 sequence (Q13133 209-447 limits assumed): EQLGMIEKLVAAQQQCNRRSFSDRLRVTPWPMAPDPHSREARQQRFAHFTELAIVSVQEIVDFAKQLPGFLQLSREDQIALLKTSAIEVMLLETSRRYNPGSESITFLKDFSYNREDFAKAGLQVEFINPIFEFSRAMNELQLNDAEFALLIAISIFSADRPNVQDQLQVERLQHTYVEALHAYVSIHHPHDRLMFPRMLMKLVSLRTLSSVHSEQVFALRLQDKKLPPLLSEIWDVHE
Outline: as §1

[3] = efficacy at max dose, in relation to reference dual agonist T0901317, read-out: LXR beta Activity @ max dose (%)
[4] = potency (Inflection Point, IP), co-activator recruitment to LXRbeta LBD, in relation to T0901317, read-out: LXR beta IP
[5] = efficacy at max dose, in relation to reference dual agonist T0901317, read-out: LXR alpha Activity @ max dose (%)
[6] = potency (Inflection Point, IP), co-activator recruitment to LXRalpha LBD, in relation to T0901317
[7] = efficacy at max dose, in relation to reference dual agonist T0901317
[8] = potency (Inflection Point, IP), co-activator recruitment to LXRalpha LBD, in relation to T0901317, read-out: LXR alpha IP

| SMILES | Emax [1, 3] | EC50 [1, 4] | Emax [2, 5] | LXR alpha IP (nM) [2, 6] | other results |
| --- | --- | --- | --- | --- | --- |
| CN(C)C(=O)c1ccc(N2CCC(CC3(C)CCN(C(=O)[C@](O)(c4cccc(OC(F)(F)F)c4)C(F)(F)F)CC3)CC2)cc1Cl [Example 2-51, 2-chloro-N,N-dimethyl-4-{4-[(4-methyl-1-{(2R)-3,3,3-trifluoro-2-hydroxy-2-[3-(trifluoro-methoxy)phenyl]propanoyl}piperidin-4-yl)methyl]piperidin-1-yl}benzamide] | 57% | 32 nM | 11% | NO IP |  |
| CN(C)C(=O)c1ccc(N2CCC(CC3CN(C(=O)C(N)(c4ccccc4)C(F)(F)F)C3)CC2)cc1Cl (centres unmarked) [Example 2-69, 4-(4-{[1-(2-amino-3,3,3-trifluoro-2-phenyl-propanoyl)azetidin-3-yl]methyl}piperidin-1-yl)-2-chloro-N,N-dimethyl-benzamide] | 112% | 1110 nM | 16% | NO IP |  |
| CCOc1cccc(C(O)(C(=O)N2CCC(CC3CCN(c4ccc(C(=O)N(C)C)c(Cl)n4)CC3)CC2)C(F)(F)F)c1 (centres unmarked) [Example 7-77, 2-chloro-6-[4-({1-[2-(3-ethoxyphenyl)-3,3,3-trifluoro-2-hydroxypropanoyl]piperidin-4-yl}methyl)piperidin-1-yl]-N,N-dimethylpyridine-3-carboxamide] | 53% | 10 nM | 6% | NO IP |  |
| CCOc1cccc([C@@](O)(C(=O)N2CCC(CC3CCN(c4ccc(C(=O)N(C)C)c(Cl)c4)CC3)CC2)C(F)F)c1 [Example 2-108, 2-chloro-4-[4-({1-[(2R)-2-(3-ethoxy-phenyl)-3,3-difluoro-2-hydroxy-propanoyl]piperidin-4-yl}methyl)piperidin-1-yl]-N,N-dimethyl-benzamide] | 10% | 33 nM | 0% | NO IP |  |
| CCc1cccc([C@@](O)(C(=O)N2CCC(C)(CC3CCN(c4ccc(C(=O)N(C)C)c(C)c4)CC3)CC2)C(F)(F)F)c1 [Example 2-78, 4-[4-({1-[(2R)-2-(3-ethylphenyl)-3,3,3-trifluoro-2-hydroxy-propanoyl]-4-methylpiperidin-4-yl}methyl)piperidin-1-yl]-N,N,2-trimethyl-benzamide] | 20% | 32 nM | 1% | NO IP |  |
| COc1cccc([C@@](O)(C(=O)N2CCC(CC3CCN(c4ccc(C(=O)N(C)C)cc4)CC3)CC2)C(F)(F)F)c1 [Example 2-132, N,N-dimethyl-4-[4-({1-[(2R)-3,3,3-trifluoro-2-hydroxy-2-(3-methoxyphenyl)propanoyl]piperidin-4-yl}methyl)piperidin-1-yl]benzamide] |  | 51 nM |  | NO IP | LXR beta Activity @ max dose (%) [1, 7]: 49%; LXR alpha Activity @ max dose (%) [2, 7]: 7% |
| CN(C)C(=O)c1ccc(N2CCC(CC3CCN(C(=O)[C@](O)(c4ccccc4)C(F)(F)F)CC3)CC2)nc1Cl [Example 7-63, 2-chloro-N,N-dimethyl-6-[4-({1-[(2R)-3,3,3-trifluoro-2-hydroxy-2-phenylpropanoyl]piperidin-4-yl}methyl)piperidin-1-yl]pyridine-3-carboxamide] | 102% | 6 nM | 39% |  | EC50 [2, 8]: 158 nM |
| CN(C)C(=O)c1ccc(N2CCC(CC3CCN(C(=O)[C@](O)(c4cccc(F)c4)C(F)F)CC3)CC2)cc1Cl [Example 2-164, 2-chloro-4-[4-({1-[(2R)-3,3-difluoro-2-(3-fluorophenyl)-2-hydroxy-propanoyl]piperidin-4-yl}methyl)piperidin-1-yl]-N,N-dimethyl-benzamide] | 70% | 12 nM | 29% |  | EC50 [2, 8]: 294 nM |
| COc1cccc([C@@](O)(C(=O)N2CC(CC3CCN(c4ccc(C(=O)N(C)C)c(OC)n4)CC3)C2)C(F)(F)F)c1 [Example 7-21, 2-methoxy-N,N-dimethyl-6-[4-[{1-[(2R)-3,3,3-trifluoro-2-hydroxy-2-(3-methoxyphenyl)propanoyl]azetidin-3-yl}methyl)piperidin-1-yl]pyridine-3-carboxamide] | 70% | 169 nM | 2% | NO IP |  |
| CNC(=O)c1ccc(N2CCC(CC3CCN(C(=O)[C@](O)(c4cccc(OC)c4)C(F)(F)C(F)(F)F)CC3)CC2)nc1Cl [Example 7-138, 2-chloro-N-methyl-6-[4-({1-[(2R)-3,3,4,4,4-pentafluoro-2-hydroxy-2-(3-methoxyphenyl)butanoyl]piperidin-4-yl}methyl)piperidin-1-yl]pyridine-3-carboxamide] | 102% | 30 nM | 39% |  | EC50 [2, 8]: 424 nM |
| CNC(=O)c1ccc(N2CCC(CC3CCN(C(=O)[C@](O)(c4cccc(C(C)C)c4)C(F)(F)F)CC3)CC2)cc1Cl [Example 7-123, 2-chloro-N-methyl-4-{4-[(1-{(2R)-3,3,3-trifluoro-2-hydroxy-2-[3-(1-methylethyl)phenyl]propanoyl}piperidin-4-yl)methyl]piperidin-1-yl}benzamide] | 73% | 17 nM | 21% |  | EC50 [2, 8]: 307 nM |
| CC(C)c1cccc([C@@](O)(C(=O)N2CCC(CC3CCN(c4ccc(C(N)=O)c(Cl)c4)CC3)CC2)C(F)(F)F)c1 [Example 12-10, 2-chloro-4-{4-[(1-{(2R)-3,3,3-trifluoro-2-hydroxy-2-[3-(1-methylethyl)phenyl]-propanoyl}piperidin-4-yl)methyl]piperidin-1-yl}benzamide] |  |  |  |  | EC50 ([1]; co-activator recruitment to GST-LXRbeta LBD, TR-FRET, read-out: LXR beta IP (Inflection Point, potency)): 8 nM; Emax ([1]; efficacy in relation to reference dual agonist T0901317, read-out: LXR beta Activity @ max dose): 51%; EC50 ([2]; co-activator recruitment to GST-LXRalpha LBD, TR-FRET, read-out: LXR alpha IP (Inflection Point, potency)): 85 nM; Emax ([2]; efficacy in relation to reference dual agonist T0901317, read-out: LXR alpha Activity @ max dose): 26% |
| CNC(=O)c1ccc(N2CCC(CC3CCN(C(=O)[C@](O)(c4cccc(Br)c4)C(F)(F)F)CC3)CC2)nc1Cl [Example 7-146, 6-[4-({1-[(2R)-2-(3-bromophenyl)-3,3,3-trifluoro-2-hydroxypropanoyl]piperidin-4-yl}methyl)piperidin-1-yl]-2-chloro-N-methylpyridine-3-carboxamide] | 113% | 9 nM | 51% |  | EC50 [2, 8]: 127 nM |
| CN(C)C(=O)c1ccc(N2CCC(CC3CCN(C(=O)C(O)(c4ccccc4)c4ccccc4)CC3)CC2)nc1Cl [Example 7-95, 2-chloro-6-[4-({1-[hydroxy(diphenyl)acetyl]piperidin-4-yl}methyl)piperidin-1-yl]-N,N-dimethylpyridine-3-carboxamide] |  |  |  | NO IP | EC50 ([1]; LXR beta IP (nM), potency (Inflection Point, IP), co-activator recruitment to LXRbeta LBD, in relation to T0901317): 98 nM; Emax ([1]; read-out: LXR beta Activity @ max dose (%)): 21%; Emax ([2]; read-out: LXR alpha Activity @ max dose (%)): 1% |
| CN(C)C(=O)c1ccc(N2CCC(CC3CCN(C(=O)[C@](O)(c4cc(Cl)cc(Cl)c4)C(F)(F)F)CC3)CC2)nc1Cl [Example 7-104, 2-chloro-6-[4-({1-[(2R)-2-(3,5-dichlorophenyl)-3,3,3-trifluoro-2-hydroxypropanoyl]piperidin-4-yl}methyl)piperidin-1-yl]-N,N-dimethylpyridine-3-carboxamide] |  | 3 nM |  | NO IP | LXR beta Activity @ max dose (%) [1, 7]: 51%; LXR alpha Activity @ max dose (%) [2, 7]: 0% |
| CC(C)Oc1cccc([C@@](O)(C(=O)N2CCC(CC3CCN(c4ccc(C(=O)N(C)C)c(Cl)n4)CC3)CC2)C(F)(F)F)c1 [Example 7-91, 2-chloro-N,N-dimethyl-6-{4-[(1-{(2R)-3,3,3-trifluoro-2-hydroxy-2-[3-(1-methylethoxy)phenyl]propanoyl}piperidin-4-yl)methyl]piperidin-1-yl}pyridine-3-carboxamide] | 58% | 8 nM | 14% | NO IP |  |
| CCOc1cccc([C@@](O)(C(=O)N2CC(CC3CCN(c4ccc(C(=O)N(C)C)c(Cl)c4)CC3)C2)C(F)(F)F)c1 [Example 2-62, 2-chloro-4-[4-({1-[(2R)-2-(3-ethoxy-phenyl)-3,3,3-trifluoro-2-hydroxy-propanoyl]azetidin-3-yl}methyl)piperidin-1-yl]-N,N-dimethyl-benzamide] | 71% | 20 nM | 0% | NO IP |  |
